According to ChEMBL document CHEMBL5252522 (Eur J Med Chem, 2016):

How the values were obtained:
[1] = biological target: Histone deacetylase 1 (Homo sapiens, UniProt Q13547); experiment: Inhibition of HDAC1 (unknown origin)
[2] = biological target: Histone deacetylase 3 (Homo sapiens, UniProt O15379); experiment: Inhibition of HDAC3 (unknown origin)
[3] = biological target: T1, Protein deacetylase HDAC6 (Homo sapiens, UniProt Q9UBN7); experiment: Inhibition of HDAC6 (unknown origin)
T1 sequence (Q9UBN7 whole entry): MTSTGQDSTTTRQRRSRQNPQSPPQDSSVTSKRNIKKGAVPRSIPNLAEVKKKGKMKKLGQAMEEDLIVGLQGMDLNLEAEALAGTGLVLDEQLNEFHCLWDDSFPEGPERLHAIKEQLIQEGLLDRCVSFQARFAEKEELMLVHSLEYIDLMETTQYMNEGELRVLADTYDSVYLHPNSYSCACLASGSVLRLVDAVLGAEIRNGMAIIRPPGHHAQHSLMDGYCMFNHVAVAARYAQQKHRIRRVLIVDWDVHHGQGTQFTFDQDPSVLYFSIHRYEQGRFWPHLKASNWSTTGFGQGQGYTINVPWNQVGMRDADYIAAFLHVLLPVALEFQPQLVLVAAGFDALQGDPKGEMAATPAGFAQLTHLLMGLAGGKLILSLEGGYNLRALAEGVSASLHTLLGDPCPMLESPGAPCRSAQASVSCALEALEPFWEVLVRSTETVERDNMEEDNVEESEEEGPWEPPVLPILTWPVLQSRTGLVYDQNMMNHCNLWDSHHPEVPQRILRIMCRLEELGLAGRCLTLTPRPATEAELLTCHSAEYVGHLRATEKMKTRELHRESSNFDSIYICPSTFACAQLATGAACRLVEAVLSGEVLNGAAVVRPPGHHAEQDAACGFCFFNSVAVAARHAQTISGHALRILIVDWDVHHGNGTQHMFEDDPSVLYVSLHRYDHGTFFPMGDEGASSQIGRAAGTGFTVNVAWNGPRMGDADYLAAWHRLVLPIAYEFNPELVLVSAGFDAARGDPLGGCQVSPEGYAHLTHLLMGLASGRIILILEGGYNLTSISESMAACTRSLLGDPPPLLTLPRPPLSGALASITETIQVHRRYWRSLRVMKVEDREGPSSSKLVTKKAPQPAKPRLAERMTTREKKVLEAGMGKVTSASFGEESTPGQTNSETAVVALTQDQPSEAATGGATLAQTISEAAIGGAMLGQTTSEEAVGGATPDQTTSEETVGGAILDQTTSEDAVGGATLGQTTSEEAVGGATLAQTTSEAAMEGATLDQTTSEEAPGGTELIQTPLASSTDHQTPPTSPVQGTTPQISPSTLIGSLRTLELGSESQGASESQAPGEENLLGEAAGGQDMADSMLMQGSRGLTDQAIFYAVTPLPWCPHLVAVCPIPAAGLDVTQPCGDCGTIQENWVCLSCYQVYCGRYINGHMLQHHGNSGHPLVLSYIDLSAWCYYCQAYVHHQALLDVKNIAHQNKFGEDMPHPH

[4] = biological target: Histone deacetylase 2 (Homo sapiens, UniProt Q92769)
[5] = biological target: Histone deacetylase 9 (Homo sapiens, UniProt Q9UKV0); experiment: Inhibition of HDAC9 (unknown origin)
[6] = biological target: Histone deacetylase 5 (Homo sapiens, UniProt Q9UQL6); experiment: Inhibition of HDAC5 (unknown origin)
[7] = biological target: Histone deacetylase 4 (Homo sapiens, UniProt P56524); experiment: Inhibition of HDAC4 (unknown origin)
[8] = biological target: T2, Histone deacetylase 8 (Homo sapiens, UniProt Q9BY41); experiment: Inhibition of HDAC8 (unknown origin)
T2 sequence (Q9BY41 whole entry): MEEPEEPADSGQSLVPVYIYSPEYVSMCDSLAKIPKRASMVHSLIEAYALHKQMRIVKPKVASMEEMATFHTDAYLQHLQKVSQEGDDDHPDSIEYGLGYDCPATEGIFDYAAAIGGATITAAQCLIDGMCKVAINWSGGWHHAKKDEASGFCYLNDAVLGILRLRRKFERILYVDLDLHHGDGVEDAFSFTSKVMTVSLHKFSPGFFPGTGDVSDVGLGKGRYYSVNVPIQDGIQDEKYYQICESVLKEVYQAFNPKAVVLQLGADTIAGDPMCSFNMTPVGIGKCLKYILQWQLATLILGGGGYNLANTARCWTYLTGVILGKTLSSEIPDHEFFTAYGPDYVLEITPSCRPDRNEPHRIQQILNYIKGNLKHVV

[9] = biological target: Histone deacetylase; type: protein assay, Homo sapiens
[10] = biological target: T3, Histone deacetylase 7 (Homo sapiens, UniProt Q8WUI4); experiment: Inhibition of HDAC7 (unknown origin)
T3 sequence (Q8WUI4 whole entry): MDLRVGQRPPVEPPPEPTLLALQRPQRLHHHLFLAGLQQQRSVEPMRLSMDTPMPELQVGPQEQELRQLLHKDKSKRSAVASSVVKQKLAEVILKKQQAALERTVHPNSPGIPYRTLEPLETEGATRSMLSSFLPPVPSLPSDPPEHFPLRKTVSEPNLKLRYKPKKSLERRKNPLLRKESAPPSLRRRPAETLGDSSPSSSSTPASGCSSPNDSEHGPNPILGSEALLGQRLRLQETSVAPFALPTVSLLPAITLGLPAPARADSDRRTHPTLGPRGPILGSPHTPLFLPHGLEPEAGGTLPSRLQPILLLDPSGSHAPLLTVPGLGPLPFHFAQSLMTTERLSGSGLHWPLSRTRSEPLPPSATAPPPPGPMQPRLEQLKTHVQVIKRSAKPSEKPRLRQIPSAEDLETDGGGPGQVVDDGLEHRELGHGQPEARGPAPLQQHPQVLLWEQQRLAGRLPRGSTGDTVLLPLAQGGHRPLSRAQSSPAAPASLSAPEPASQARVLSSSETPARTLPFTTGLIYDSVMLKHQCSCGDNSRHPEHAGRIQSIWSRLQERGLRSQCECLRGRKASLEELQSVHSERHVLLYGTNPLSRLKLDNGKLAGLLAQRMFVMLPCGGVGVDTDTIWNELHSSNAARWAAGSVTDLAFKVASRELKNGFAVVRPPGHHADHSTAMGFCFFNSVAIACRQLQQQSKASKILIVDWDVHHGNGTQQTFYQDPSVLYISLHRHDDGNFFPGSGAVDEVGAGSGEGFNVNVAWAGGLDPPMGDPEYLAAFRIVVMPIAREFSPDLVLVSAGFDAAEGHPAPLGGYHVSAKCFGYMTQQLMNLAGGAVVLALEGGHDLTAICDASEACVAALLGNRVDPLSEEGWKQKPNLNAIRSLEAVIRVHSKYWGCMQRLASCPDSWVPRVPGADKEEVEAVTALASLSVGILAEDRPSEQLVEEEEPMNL

[11] = biological target: T4, Polyamine deacetylase HDAC10 (Homo sapiens, UniProt Q969S8); experiment: Inhibition of HDAC10 (unknown origin)
T4 sequence (Q969S8 whole entry): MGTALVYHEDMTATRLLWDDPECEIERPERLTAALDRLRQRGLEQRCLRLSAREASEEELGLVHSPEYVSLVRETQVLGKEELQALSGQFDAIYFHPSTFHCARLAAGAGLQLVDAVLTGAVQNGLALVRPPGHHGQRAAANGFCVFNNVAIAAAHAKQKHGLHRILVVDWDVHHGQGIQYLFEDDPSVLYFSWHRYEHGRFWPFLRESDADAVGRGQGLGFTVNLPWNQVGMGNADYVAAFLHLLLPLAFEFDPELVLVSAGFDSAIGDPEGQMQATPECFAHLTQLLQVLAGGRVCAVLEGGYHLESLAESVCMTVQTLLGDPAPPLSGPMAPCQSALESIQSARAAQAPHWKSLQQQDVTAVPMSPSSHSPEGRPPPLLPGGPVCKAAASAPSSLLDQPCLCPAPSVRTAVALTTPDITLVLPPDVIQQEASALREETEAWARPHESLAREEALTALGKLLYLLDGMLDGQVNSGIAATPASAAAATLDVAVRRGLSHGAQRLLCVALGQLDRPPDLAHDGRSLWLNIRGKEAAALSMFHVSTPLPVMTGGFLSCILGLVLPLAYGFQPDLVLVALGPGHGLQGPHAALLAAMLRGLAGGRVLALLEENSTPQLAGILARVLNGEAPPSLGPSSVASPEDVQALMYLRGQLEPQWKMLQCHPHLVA

[12] = biological target: T5, Histone deacetylase 11 (Homo sapiens, UniProt Q96DB2); experiment: Inhibition of HDAC11 (unknown origin)
T5 sequence (Q96DB2 whole entry): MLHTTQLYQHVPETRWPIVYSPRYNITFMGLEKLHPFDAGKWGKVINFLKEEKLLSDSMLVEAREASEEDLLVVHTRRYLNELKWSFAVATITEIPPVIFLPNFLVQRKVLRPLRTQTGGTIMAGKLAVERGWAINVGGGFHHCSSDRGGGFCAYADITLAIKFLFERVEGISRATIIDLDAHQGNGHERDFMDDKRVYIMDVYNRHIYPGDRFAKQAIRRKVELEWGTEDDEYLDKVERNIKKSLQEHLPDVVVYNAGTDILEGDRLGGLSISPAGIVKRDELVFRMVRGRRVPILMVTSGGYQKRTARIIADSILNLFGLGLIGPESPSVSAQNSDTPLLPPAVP

Sequence of Histone deacetylase 3 (O15379 whole entry): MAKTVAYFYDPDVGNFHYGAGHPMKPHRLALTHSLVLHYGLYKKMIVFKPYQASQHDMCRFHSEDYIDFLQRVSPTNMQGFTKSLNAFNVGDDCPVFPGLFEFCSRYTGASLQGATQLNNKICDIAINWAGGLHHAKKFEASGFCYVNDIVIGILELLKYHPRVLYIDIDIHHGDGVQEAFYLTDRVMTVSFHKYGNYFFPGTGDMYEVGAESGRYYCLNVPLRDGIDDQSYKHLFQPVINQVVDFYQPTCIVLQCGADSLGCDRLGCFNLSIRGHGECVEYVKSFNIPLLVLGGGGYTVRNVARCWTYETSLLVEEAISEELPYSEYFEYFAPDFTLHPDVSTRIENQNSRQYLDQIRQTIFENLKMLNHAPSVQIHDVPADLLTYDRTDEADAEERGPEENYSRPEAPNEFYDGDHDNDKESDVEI
Sequence of Histone deacetylase 4 (P56524 whole entry): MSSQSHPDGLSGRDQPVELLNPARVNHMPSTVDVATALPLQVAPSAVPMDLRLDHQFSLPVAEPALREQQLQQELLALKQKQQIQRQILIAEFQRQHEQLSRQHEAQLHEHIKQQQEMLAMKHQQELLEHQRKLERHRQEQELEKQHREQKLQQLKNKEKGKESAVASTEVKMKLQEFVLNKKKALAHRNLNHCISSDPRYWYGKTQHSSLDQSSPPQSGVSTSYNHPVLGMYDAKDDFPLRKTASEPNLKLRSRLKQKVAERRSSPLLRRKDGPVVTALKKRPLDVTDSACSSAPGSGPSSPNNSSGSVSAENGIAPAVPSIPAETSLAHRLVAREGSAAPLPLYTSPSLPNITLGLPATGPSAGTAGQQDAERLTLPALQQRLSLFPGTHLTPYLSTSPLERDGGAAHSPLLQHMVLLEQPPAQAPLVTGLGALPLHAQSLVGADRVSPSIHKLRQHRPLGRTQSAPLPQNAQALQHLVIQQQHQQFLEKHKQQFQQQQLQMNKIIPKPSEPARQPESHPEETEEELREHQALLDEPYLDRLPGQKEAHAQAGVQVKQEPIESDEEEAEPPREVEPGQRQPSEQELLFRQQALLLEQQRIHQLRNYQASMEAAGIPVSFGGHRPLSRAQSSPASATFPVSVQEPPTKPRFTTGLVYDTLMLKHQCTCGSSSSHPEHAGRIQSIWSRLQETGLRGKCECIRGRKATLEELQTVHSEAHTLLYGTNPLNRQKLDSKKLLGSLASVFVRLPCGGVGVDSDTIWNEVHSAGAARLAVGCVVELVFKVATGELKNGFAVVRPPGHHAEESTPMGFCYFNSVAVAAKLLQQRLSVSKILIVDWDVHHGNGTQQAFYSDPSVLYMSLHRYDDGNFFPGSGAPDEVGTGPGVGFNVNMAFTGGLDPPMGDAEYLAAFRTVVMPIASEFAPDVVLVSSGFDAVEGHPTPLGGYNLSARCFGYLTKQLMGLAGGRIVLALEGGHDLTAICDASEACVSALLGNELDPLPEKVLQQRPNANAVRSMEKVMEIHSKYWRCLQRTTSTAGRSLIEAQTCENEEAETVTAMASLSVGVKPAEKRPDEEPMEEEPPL
Sequence of Histone deacetylase 5 (Q9UQL6 whole entry): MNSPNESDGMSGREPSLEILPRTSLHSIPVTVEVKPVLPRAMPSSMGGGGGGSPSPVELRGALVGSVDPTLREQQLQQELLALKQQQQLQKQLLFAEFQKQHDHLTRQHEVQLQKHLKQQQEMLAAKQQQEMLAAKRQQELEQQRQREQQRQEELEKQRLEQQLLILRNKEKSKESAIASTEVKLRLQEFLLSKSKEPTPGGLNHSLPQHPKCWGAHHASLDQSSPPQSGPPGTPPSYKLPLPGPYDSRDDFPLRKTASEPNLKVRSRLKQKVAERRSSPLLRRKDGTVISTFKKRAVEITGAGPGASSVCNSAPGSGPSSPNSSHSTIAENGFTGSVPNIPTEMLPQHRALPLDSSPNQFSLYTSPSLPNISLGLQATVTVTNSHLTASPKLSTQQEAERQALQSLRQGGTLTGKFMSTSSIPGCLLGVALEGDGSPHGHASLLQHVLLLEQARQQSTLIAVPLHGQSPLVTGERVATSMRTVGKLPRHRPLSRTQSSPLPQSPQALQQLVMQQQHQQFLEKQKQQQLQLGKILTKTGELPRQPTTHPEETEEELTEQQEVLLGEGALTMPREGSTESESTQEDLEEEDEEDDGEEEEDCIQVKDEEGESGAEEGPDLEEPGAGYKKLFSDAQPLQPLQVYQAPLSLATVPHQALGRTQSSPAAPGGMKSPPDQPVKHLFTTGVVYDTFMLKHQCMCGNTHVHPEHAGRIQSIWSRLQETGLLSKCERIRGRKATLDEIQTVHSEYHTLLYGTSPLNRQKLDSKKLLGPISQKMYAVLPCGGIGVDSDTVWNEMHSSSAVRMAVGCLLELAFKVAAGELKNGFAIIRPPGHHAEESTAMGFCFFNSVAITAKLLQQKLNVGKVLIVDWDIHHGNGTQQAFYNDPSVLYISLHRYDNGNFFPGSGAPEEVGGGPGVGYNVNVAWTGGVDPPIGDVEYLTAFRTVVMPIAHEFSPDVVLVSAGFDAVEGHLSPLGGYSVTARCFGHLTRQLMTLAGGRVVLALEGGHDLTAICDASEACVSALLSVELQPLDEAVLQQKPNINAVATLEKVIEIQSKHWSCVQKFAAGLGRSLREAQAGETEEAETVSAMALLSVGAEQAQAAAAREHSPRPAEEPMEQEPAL
Sequence of Histone deacetylase 2 (Q92769 whole entry): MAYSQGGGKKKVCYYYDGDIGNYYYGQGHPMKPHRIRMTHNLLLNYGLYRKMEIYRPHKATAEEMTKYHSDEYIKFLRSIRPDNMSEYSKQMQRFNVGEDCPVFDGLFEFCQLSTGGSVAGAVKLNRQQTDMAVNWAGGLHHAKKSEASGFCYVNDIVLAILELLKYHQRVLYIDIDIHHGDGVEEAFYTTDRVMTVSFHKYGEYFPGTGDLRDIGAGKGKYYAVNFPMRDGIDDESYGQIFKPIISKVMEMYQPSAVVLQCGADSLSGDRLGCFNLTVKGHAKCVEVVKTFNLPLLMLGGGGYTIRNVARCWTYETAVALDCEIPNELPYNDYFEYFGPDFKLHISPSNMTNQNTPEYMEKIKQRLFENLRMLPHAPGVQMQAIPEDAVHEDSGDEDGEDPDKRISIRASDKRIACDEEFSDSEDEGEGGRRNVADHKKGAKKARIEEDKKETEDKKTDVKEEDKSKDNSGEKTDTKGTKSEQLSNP
Sequence of Histone deacetylase 9 (Q9UKV0 whole entry): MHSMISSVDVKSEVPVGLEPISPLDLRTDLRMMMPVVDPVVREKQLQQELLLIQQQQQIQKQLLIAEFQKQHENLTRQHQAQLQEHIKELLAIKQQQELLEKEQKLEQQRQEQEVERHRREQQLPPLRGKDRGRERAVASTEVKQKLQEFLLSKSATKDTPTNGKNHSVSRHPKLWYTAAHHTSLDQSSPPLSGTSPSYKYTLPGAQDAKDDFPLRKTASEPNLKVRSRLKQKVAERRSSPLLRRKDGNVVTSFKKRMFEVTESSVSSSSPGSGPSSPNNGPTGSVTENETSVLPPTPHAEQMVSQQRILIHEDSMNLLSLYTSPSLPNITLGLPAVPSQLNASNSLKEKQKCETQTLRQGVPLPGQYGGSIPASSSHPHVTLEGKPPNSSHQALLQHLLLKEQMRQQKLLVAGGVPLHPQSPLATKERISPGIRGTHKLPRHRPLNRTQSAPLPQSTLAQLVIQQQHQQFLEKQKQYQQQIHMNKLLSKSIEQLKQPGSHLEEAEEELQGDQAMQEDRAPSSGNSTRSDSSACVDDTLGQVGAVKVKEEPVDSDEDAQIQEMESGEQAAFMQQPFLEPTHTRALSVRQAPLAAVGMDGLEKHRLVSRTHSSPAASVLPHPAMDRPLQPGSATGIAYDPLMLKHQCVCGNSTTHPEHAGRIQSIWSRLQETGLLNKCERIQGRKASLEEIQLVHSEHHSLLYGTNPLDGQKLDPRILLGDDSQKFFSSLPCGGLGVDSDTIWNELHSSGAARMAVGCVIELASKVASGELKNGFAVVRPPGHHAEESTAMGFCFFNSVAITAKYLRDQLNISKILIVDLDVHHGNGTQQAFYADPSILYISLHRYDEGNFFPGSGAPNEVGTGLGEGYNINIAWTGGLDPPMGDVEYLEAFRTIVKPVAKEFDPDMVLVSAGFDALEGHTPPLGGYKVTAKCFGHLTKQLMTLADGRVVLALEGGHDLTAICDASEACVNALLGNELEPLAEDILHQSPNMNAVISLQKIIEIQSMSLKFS
Sequence of Histone deacetylase 1 (Q13547 whole entry): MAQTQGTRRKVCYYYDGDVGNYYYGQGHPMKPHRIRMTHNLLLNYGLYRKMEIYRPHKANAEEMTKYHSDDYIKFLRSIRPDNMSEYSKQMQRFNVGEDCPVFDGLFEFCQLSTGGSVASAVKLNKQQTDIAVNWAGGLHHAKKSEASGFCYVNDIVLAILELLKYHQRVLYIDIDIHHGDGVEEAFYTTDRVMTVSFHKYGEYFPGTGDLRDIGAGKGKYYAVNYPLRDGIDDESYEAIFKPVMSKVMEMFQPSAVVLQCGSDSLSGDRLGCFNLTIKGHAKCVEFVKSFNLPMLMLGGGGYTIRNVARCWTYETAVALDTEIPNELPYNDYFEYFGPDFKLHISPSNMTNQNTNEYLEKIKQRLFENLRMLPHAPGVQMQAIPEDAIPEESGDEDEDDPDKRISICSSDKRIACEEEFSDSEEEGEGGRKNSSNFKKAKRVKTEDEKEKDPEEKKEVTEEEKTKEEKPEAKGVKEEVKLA

Structure (SMILES) | IC50 [1] [nM] | IC50 [2] [nM] | IC50 [3] [nM] | IC50 [4] [nM] | IC50 [8] [nM] | other results
COc1cc2c(Nc3cccc(/C=C/C(=O)NO)c3)ncnc2cc1OCCCN1CCOCC1 | 160 | 180 | 560 |  |  | 
CN(CCc1ccccc1)S(=O)(=O)c1cccc(/C=C/C(=O)NO)c1 | 5 | 3.4 | 5 | 0.2 | 150 | IC50 [5]: 16900 nM; IC50 [6]: 10700 nM; IC50 [7]: 500 nM
CCc1nnc(NS(=O)(=O)c2ccc(Nc3nc(C)c(C(=O)Nc4ccccc4)s3)cc2)s1 |  |  |  |  |  | IC50 [9]: 32000 nM
CCc1nnc(NS(=O)(=O)c2ccc(N/C=C3\Sc4ccccc4C3=O)cc2)s1 |  |  |  |  |  | IC50 [9]: 4200 nM
O=C(/C=C/c1cccc(Nc2ncnc3cc4c(cc23)OCCO4)c1)NO | 290 | 500 | 560 |  |  | 
O=C(CCc1ccc(Oc2cccs2)c(O)c1)Nc1ccc(C(=O)NO)cc1 | 24 |  |  |  | 152 | 
CC(C)Cc1c(OCCOc2cccc(/C=C/C(=O)NO)c2)ccc2c1OC(=O)CC2 | 66.7 |  | 6 |  |  | 
CC1(C)C(=O)N(c2ccc(C#N)c(C(F)(F)F)c2)C(=O)N1Cc1ccc(-c2cn(CCCCCCC(=O)NO)nn2)cc1 |  |  |  |  |  | IC50 [9]: 690 nM
O=C(CCCCCCNC(=O)c1c(-c2ccc(O)cc2)sc2cc(O)ccc12)NO | 168 | 128 |  | 665 | 400 | 
[11CH3]n1cc(CCNCc2ccc(/C=C/C(=O)NO)cc2)c2ccccc21 | 0.2 | 0.4 | 1.6 | 1.2 | 1040 | IC50 [5]: 4850 nM; IC50 [6]: 99 nM; IC50 [7]: 655 nM; IC50 [10]: 2040 nM
OC1(c2ccccc2)C=C(c2ccccc2)CO1 (stereo not drawn) | 2740 |  |  | 170 |  | 
O=C(CCCCCn1cc(-c2ccc(C(=O)c3c(-c4ccc(O)cc4)sc4cc(O)ccc34)cc2)nn1)NO | 1030 | 748 |  | 1820 | 29900 | 
CN(C)Cc1ccc(C(=O)Nc2cc(-c3ccccc3)ccc2N)cc1 | 10 | 5200 |  | 20 |  | 
O=C(NO)c1ccc(CC(=O)N(CCO)c2ccccc2)cc1 | 2900 | 1700 |  |  | 2800 | IC50 [11]: 3000 nM; IC50 [5]: > 10000 nM; IC50 [12]: > 10000 nM; IC50 [6]: > 10000 nM; IC50 [7]: > 10000 nM; IC50 [10]: > 10000 nM
CC[N+]1=C(/C=C/C=C/C=C2/N(CCCCC(=O)N(CCc3c(C)[nH]c4ccccc34)Cc3ccc(/C=C/C(=O)NO)cc3)c3ccc4c(S(=O)(=O)O)cc(S(=O)(=O)O)cc4c3C2(C)C)C(C)(C)c2c1ccc1c(S(=O)(=O)[O-])cc(S(=O)(=O)O)cc21 |  |  |  |  |  | IC50 [9]: 9.6 nM
